For assay [1], the target named is T1, glutathione S-transferase (GST)-fused full-length human Syk protein (Homo sapiens, UniProt P43405).
T1 construct: (GST)-fused full-length human Syk protein; GST (glutathione S-transferase); purchased Carna Biosciences
In words: Syk enzyme assay. To be noted: Syk enzyme assay, Test Example 1; read-out: IC50 of Syk-inhibitory activity. In kind it is biochemical. The method, boiled down:
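IC50 values come from a time-resolved FRET readout (615 and 665 nm) of substrate phosphorylation, measured after an EDTA stop and 1 h antibody binding. The kinase reaction ran 40 min at room temperature with 27 μM ATP and 0.4 μM biotin-peptide, following a 15 min compound preincubation with baculovirus-made GST-full-length human Syk.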

The subject of the next assay is THP-1 cells. In words: TNFα generation assay. In kind it is cell-based, human. To be noted: Homo sapiens, THP-1, THP-1 cells; Table 22; read-out: IC50 in TNFα generation assay. A digest of the protocol:
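Secreted TNFα in supernatant quantified by ELISA or AlphaLISA after 7 h culture on human IgG-coated wells (10 μg/ml coating). Cells were IFN-γ-differentiated THP-1 (10 ng/ml, 2 days), exposed to compound for 30 min at room temperature before plating.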

With `CCC[C@@H](Nc1nc(Nc2ccc3ncccc3c2)c(C(N)=O)cc1F)[C@@H](N)CC` [Example 006-200, 6-(((3S,4R)-3-aminoheptan-4-yl)amino)-5-fluoro-2-((quinolin-6-yl)amino)nicotinamide], the IC50 was below 10 nM in assay [1] and 65 to 130 nM in the assay on THP-1 cells.
In the case of `NC(=O)c1cc(F)c(N[C@@H]2CCCC[C@@H]2N)nc1Nc1cncc(-n2ccnn2)c1` [Example 004-043], the IC50 in assay [1] fell in the range of 100 to 1000 nM; in the assay on THP-1 cells it was 65 to 130 nM.
In the case of `NC(=O)c1cc(F)c(N[C@@H]2CCCC[C@@H]2N)nc1Nc1cnc2c(N)cccc2c1` (relative stereo) [Example 004-059], the values for the IC50 (in assay [1]; in the assay with THP-1 cells) were below 10 nM and below 65 nM, respectively.
The matching figures for `COc1ccccc1-c1cncc(Nc2nc(N[C@@H]3CCCC[C@@H]3N)c(F)cc2C(N)=O)c1` (relative stereo) [Example 004-149, 6-(cis-2-aminocyclohexylamino)-5-fluoro-2-((5-(2-methoxyphenyl)pyridin-3-yl)amino)-nicotinamide]: below 10 nM and 130 to 200 nM.
On to `CC(N)CNc1nc(Nc2ccc3ncccc3c2)c(C(N)=O)cc1F` (centres unmarked) [Example 014-009], for which the IC50 was below 10 nM in assay [1] and below 65 nM with THP-1 cells.
Turning to `CC(C)C[C@@H](Nc1nc(Nc2ccc3ncccc3c2)c(C(N)=O)cc1F)[C@H](C)N` [Example 006-209, 6-(((2S,3R)-2-amino-5-methylhexan-3-yl)amino)-5-fluoro-2-((quinolin-6-yl)amino)nicotinamide], the results for the IC50 (in assay [1]; in the assay with THP-1 cells) were below 10 nM and 65 to 130 nM, respectively.
For `NC(=O)c1cc(F)c(N[C@@H]2CCCC[C@@H]2N)nc1Nc1cncc(-c2cccc(N)c2)c1` (relative stereo) [Example 004-217, 6-(cis-2-aminocyclohexylamino)-2-((5-(3-aminophenyl)pyridin-3-yl)amino)-5-fluoronicotinamide], the IC50 in assay [1] was below 10 nM; in the assay with THP-1 cells, 65 to 130 nM.
Take `CC(C)Oc1cc(Nc2nc(NC3CCCCC3N)c(F)cc2C(N)=O)ccn1` (centres unmarked) [Example 002-055]: the IC50 in assay [1] is below 10 nM; in the assay on THP-1 cells, 130 to 200 nM.
As for `CC(C)C[C@H](CN)Nc1nc(Nc2cccc3c2cnn3C)c(C(N)=O)cc1F` [Example 006-227, (R)-6-((1-amino-4-methylpentan-2-yl)amino)-5-fluoro-2-((1-methyl-1H-indazol-4-yl)amino)nicotinamide], the values for the IC50 (in assay [1]; in the assay on THP-1 cells) were below 10 nM and 130 to 200 nM, respectively.
Consider `Cc1nn(C)c2ccc(Nc3nc(NC4CCCCC4N)c(F)cc3C(N)=O)cc12` (centres unmarked) [Example 002-206], for which the IC50 in assay [1] is below 10 nM; with THP-1 cells it was below 65 nM.
Turning to `Cc1nn(C2CC2)c2ccc(Nc3nc(N[C@@H]4CCCC[C@@H]4N)c(F)cc3C(N)=O)cc12` [Example 006-477, 6-(((1R,2S)-2-aminocyclohexyl)amino)-2-((1-cyclopropyl-3-methyl-1H-indazol-5-yl)amino)-5-fluoronicotinamide], the IC50 was below 10 nM in assay [1] and 130 to 200 nM with THP-1 cells.
In the case of `CCC[C@@H](Nc1nc(Nc2ccnc(-n3cncn3)c2)c(C(N)=O)cc1F)[C@H](C)N` [Example 006-300, 2-((2-(1H-1,2,4-triazol-1-yl)pyridin-4-yl)amino)-6-(((2S,3R)-2-aminohexan-3-yl)amino)-5-fluoronicotinamide], the results for the IC50 (in assay [1]; in the assay with THP-1 cells) were below 10 nM and below 65 nM, respectively.
For the compound `COCCOc1ncc(Nc2nc(N[C@@H]3CCCC[C@@H]3N)c(F)cc2C(N)=O)cc1-n1nccn1` [Example 006-517, 6-(((1R,2S)-2-aminocyclohexyl)amino)-5-fluoro-2-((6-(2-methoxyethoxy)-5-(2H-1,2,3-triazol-2-yl)pyridin-3-yl)amino)nicotinamide], the results for the IC50 (in assay [1]; with THP-1 cells) were below 10 nM and 65 to 130 nM, respectively.
With `NC(=O)c1cc(F)c(N[C@@H]2CCCC[C@@H]2N)nc1Nc1cncc(C2CC2)c1` [Example 006-167, 6-(((1R,2S)-2-aminocyclohexyl)amino)-2-((5-cycylopropylpyridin-3-yl)amino)-5-fluoronicotinamide], the IC50 in assay [1] was below 10 nM; in the assay on THP-1 cells it was below 65 nM.
For the compound `CCn1nc(C)c2cc(Nc3nc(N[C@H](CC(C)C)[C@H](C)N)c(F)cc3C(N)=O)ccc21` [Example 006-521, 6-(((2S,3R)-2-amino-5-methylhexan-3-yl)amino)-2-((1-ethyl-3-methyl-1H-indazol-5-yl)amino)-5-fluoronicotinamide], the IC50 is below 10 nM in assay [1] and 65 to 130 nM in the assay with THP-1 cells.
In the case of `C[C@H](N)[C@@H](CC1CC1)Nc1nc(Nc2ccnc(-n3cncn3)c2)c(C(N)=O)cc1F` [Example 006-353, 2-((2-(1H-1,2,4-triazol-1-yl)pyridin-4-yl)amino)-6-(((2R,3S)-3-amino-1-cyclopropylbutan-2-yl)amino)-5-fluoronicotinamide], the IC50 is below 10 nM in assay [1] and below 65 nM in the assay on THP-1 cells.
Consider `NC(=O)c1cc(Br)c(NC2CCCCC2N)nc1Nc1cnc2ccccc2c1` (centres unmarked) [Example 035-002], for which the IC50 in assay [1] was below 10 nM; in the assay on THP-1 cells it was 65 to 130 nM.
In the case of `CCC[C@@H](Nc1nc(Nc2ccc3cnn(C)c3c2)c(C(N)=O)cc1F)[C@H](C)N` [Example 006-359, 6-(((2S,3R)-2-aminohexan-3-yl)amino)-5-fluoro-2-((1-methyl-1H-indazol-6-yl)amino)nicotinamide], the figures for the IC50 (in assay [1]; with THP-1 cells) were below 10 nM and below 65 nM, respectively.
Take `NC(=O)c1cc(F)c(N[C@@H]2CCCC[C@@H]2N)nc1Nc1cnc2c(c1)CCC2` (relative stereo) [Example 004-162, 6-(cis-2-aminocyclohexylamino)-2-((6,7-dihydro-5H-cyclopenta[b]pyridin-3-yl)amino)-5-fluoronicotinamide]: the IC50 was below 10 nM in assay [1] and 130 to 200 nM in the assay on THP-1 cells.
Regarding `CCC[C@@H](Nc1nc(Nc2cnc(C)c(C)c2)c(C(N)=O)cc1F)[C@H](C)N` [Example 006-296, 6-(((2S,3R)-2-aminohexan-3-yl)amino)-2-((5,6-dimethylpyridin-3-yl)amino)-5-fluoronicotinamide], the figures for the IC50 (in assay [1]; in the assay with THP-1 cells) were below 10 nM and 65 to 130 nM, respectively.
Take `COCCOc1cc(Nc2nc(N[C@H](C3CC3)[C@H](C)N)c(F)cc2C(N)=O)ccn1` [Example 006-431, 6-(((1R,2S)-2-amino-1-cyclopropylpropyl)amino)-5-fluoro-2-((2-(2-methoxyethoxy)pyridin-4-yl)amino)nicotinamide]: the IC50 lay in the range of 10 to 50 nM in assay [1] and 65 to 130 nM in the assay with THP-1 cells.
On to `NC(=O)c1cc(F)c(NC2CCCCC2N)nc1Nc1cncc(-n2cncn2)c1` (centres unmarked) [Example 002-137], for which the IC50 in assay [1] was below 10 nM; with THP-1 cells it was 130 to 200 nM.
Turning to `COc1nn(C)c2ccc(Nc3nc(N[C@@H]4CCCC[C@@H]4N)c(F)cc3C(N)=O)cc12` [Example 006-585, 6-(((1R,2S)-2-aminocyclohexyl)amino)-5-fluoro-2-((3-methoxy-1-methyl-1H-indazol-5-yl)amino)nicotinamide], the values for the IC50 (in assay [1]; with THP-1 cells) were below 10 nM and below 65 nM, respectively.
As for `NC(=O)c1cc(F)c(NC2CCCCC2N)nc1Nc1ccnc(N2CCOCC2)c1F` (centres unmarked) [Example 002-165], the IC50 lay in the range of 10 to 50 nM in assay [1] and 65 to 130 nM with THP-1 cells.
Take `CCn1nc(F)c2ccc(Nc3nc(NC4CCCCC4N)c(F)cc3C(N)=O)cc21` (centres unmarked) [Example 002-199]: the IC50 was below 10 nM in assay [1] and 130 to 200 nM with THP-1 cells.
`CCCc1nn(CCF)c2ccc(Nc3nc(N[C@@H]4CCCC[C@@H]4N)c(F)cc3C(N)=O)cc12` [Example 006-459, 6-(((1R,2S)-2-aminocyclohexyl)amino)-5-fluoro-2-((1-(2-fluoroethyl)-3-propyl-1H-indazol-5-yl)amino)nicotinamide]: the IC50 was below 10 nM in assay [1] and 65 to 130 nM with THP-1 cells.
Regarding `NC(=O)c1cc(F)c(N[C@@H]2CCCC[C@@H]2N)nc1Nc1cncc(-c2nnco2)c1` (relative stereo) [Example 004-229, 2-((5-(1,3,4-oxadiazol-2-yl)pyridin-3-yl)amino)-6-((cis-2-aminocyclohexyl)amino)-5-fluoronicotinamide], the figures for the IC50 (in assay [1]; with THP-1 cells) were below 10 nM and 65 to 130 nM, respectively.
For `COc1cc(Nc2nc(N[C@@H]3CCCC[C@@H]3N)c(F)cc2C(N)=O)c2cc[nH]c2n1` (relative stereo) [Example 004-065, 6-(cis-2-aminocyclohexylamino)-5-fluoro-2-((6-methoxy-1H-pyrrolo[2,3-b]pyridin-4-yl)-amino)nicotinamide], the IC50 was below 10 nM in assay [1] and 65 to 130 nM in the assay on THP-1 cells.
For `COc1ncc(Nc2nc(N[C@@H]3CCCC[C@@H]3N)c(F)cc2C(N)=O)cc1N1CCOCC1` [Example 006-564, 6-(((1R,2S)-2-aminocyclohexyl)amino)-5-fluoro-2-((6-methoxy-5-mopholinopyridin-3-yl)amino)nicotinamide], the IC50 lay in the range of 100 to 1000 nM in assay [1] and 65 to 130 nM with THP-1 cells.
On to `CCc1nn(CC)c2ccc(Nc3nc(N[C@H](CC)[C@H](C)N)c(F)cc3C(N)=O)cc12` [Example 006-541, 6-(((2S,3R)-2-aminopentan-3-yl)amino)-2-((1,3-diethyl-1H-indazol-5-yl)amino)-5-fluoronicotinamide], for which the IC50 in assay [1] is below 10 nM; in the assay with THP-1 cells it was 130 to 200 nM.
As for `CCc1nn(CC)c2ccc(Nc3nc(N[C@H](CC4CC4)[C@H](C)N)c(F)cc3C(N)=O)cc12` [Example 006-506, 6-(((2R,3S)-3-amino-1-cyclopropylbutan-2-yl)amino)-2-((1,3-diethyl-1H-indazol-5-yl)amino)-5-fluoronicotinamide], the values for the IC50 (in assay [1]; in the assay with THP-1 cells) were below 10 nM and 130 to 200 nM, respectively.

Source of the values: US8895585B2, “Nicotinamide derivative or salt thereof” (FUJIFILM Corporation, priority 2010, dated 2014).
